≈ marks a conversion by molar mass, not a printed value. Read-outs that look alike come from different tables or passages of the source.
Legend:
[1] = molecular target: acetylcholinesterase (AChE) (Homo sapiens, UniProt P22303); assay: biochemical
Experimental: The acetylcholinesterase activity was determined by a colorimetric assay based on Ellman’s methodology. […] They were dissolved in DMSO and then diluted with buffer (50 mM of Tris-HCl, with a pH of 8 containing 0.1 M NaCl), 0.1% bovine serum albumin (BSA), 25 µL of acetylthiocholine iodide. The plate was incubated at 25 °C for 15 min. […] Each assay was done in triplicate. The percentage of inhibition of AChE was determined by the following formula: Inhibition (%) = [(OD of control − OD of sample)/OD of control] × 100.

[2] = molecular target: α-glucosidase from Saccharomyces cerevisiae (Saccharomyces cerevisiae, UniProt P53341); assay: In vitro α-glucosidase inhibition (p-NPG substrate); conditions: for IC50: IC50 for inhibition of α-glucosidase, tested 1–256 µg/mL, mean of three replicates ± SD; for inhibition at 1 µg/mL / inhibition at 4 µg/mL / inhibition at 16 µg/mL / inhibition at 64 µg/mL / inhibition at 256 µg/mL: read-out: α-Glucosidase Inhibition (%);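 on all read-outs here: yeast α-glucosidase at 0.2 U/mL with p-nitrophenyl α-D-glucopyranoside substrate in 100 mM potassium phosphate pH 6.8, product read by absorbance at 410 nm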
α-glucosidase from Saccharomyces cerevisiae, sequence (P53341 whole entry): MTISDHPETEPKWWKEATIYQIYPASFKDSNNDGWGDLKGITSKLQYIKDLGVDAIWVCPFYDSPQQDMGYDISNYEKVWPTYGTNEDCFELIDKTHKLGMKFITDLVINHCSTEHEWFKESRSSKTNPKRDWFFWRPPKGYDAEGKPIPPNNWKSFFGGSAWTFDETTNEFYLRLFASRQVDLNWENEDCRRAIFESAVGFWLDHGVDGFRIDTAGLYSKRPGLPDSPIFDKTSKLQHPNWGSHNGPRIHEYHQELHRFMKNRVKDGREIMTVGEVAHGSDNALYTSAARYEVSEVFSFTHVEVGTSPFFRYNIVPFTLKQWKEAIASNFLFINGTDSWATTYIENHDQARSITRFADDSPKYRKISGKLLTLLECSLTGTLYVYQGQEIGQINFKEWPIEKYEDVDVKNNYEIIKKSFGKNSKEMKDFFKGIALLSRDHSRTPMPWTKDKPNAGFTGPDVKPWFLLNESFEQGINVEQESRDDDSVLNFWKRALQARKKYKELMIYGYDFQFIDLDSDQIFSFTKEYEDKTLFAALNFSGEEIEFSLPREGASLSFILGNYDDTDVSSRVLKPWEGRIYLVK

[3] = test system: NO production in lipopolysaccharide (LPS)-stimulated RAW 264.7 cells; assay: Inhibition of NO production in LPS-stimulated RAW 264.7 cells (Griess assay); assay type: cell-based; conditions: for IC50 / inhibition at 500 µg/mL: Mus musculus; for IC50: RAW264.7, LPS-stimulated RAW 264.7 cells; for IC50 / IC50 for the inhibition of NO production: tested 0.8–500 µg/mL, mean of three replicates ± SD; for inhibition at 500 µg/mL: RAW264.7; for inhibition at 500 µg/mL / IC50 for the inhibition of NO production: LPS-stimulated RAW 264.7 cells
Experimental: It was supplemented with 10% fetal bovine serum (FBS) and incubated at 37 °C in humidified air with 5% CO2. […] Next, 100 μL of Griess reagent (50 μL of 1% (w/v) sulfanilamide in 5% (v/v) phosphoric acid and 50 μL of 0.1% (w/v) N-1-naphthylethylenediamine dihydrochloride) was added, and it was incubated at room temperature for about 10 min. The Griess Reagent System from Promega Cooperation (USA) was used to determine the presence of nitrite. The microplate reader was used to assess absorption at 540 nm. N^G-Methyl-L-arginine acetate (L-NMMA) (Sigma) was used as a positive control at doses of […]. […] The experiments were repeated at least three times independently.

RAW 264.7 cells = assay: Cell viability (MTT) assay for cytotoxicity; assay type: cell-based
Experimental: The cells were diluted to a suitable cell density. One hundred eighty microliters of the cells were added to each well of the plate and incubated at 37 °C, 5% CO2 for 72 h. After the incubation, 10 µL of MTT solution (5 mg/mL) was added. […] Cell viability was calculated based on the formula as follows:Cell viability (%) = [(OD Sample)/(OD Control)] × 100%, where OD is the optical density recorded at 540 nm.

α-glucosidase = conditions: cited from earlier work
NO formation = test system: NO formation; parameters: method as in doi:10.20307/nps.2019.25.1.34; conditions: at 40 µg/mL; ursolic acid isolated from Phryma leptostachya var. asiatica; cited from earlier work
NO production = conditions: at a high concentration of 1000 µM; cited from earlier work
[4] = tested 1 to 256 µg/mL, triplicate, read-out: IC50 for acetylcholinesterase inhibition (converted)
[5] = cell viability assay, concentrations as in NO assay

acetylcholinesterase (AChE), sequence (P22303 32-614): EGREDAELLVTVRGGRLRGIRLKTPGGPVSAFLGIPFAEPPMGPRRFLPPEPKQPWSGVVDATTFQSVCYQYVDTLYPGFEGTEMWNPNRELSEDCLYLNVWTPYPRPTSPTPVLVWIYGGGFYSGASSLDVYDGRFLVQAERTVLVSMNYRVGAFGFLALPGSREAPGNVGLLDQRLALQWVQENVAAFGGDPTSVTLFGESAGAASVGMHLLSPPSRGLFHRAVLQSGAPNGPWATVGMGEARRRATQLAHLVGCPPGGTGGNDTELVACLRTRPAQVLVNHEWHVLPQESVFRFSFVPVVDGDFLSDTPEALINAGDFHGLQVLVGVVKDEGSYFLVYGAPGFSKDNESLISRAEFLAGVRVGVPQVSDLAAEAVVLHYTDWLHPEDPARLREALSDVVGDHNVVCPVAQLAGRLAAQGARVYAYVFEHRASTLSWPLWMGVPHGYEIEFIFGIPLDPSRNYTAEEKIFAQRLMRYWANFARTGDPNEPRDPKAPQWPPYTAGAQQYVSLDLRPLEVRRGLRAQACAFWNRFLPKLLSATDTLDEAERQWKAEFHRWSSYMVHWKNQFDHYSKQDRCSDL

| SMILES | IC50 [1] [µM] | Fold Change [2] | IC50 [2] [µM] | inhibition at 1 µg/mL [2] [%] | inhibition at 4 µg/mL [2] [%] | inhibition at 16 µg/mL [2] [%] | inhibition at 64 µg/mL [2] [%] | inhibition at 256 µg/mL [2] [%] | IC50 [3] [µg/mL] | inhibition at 500 µg/mL [3] [%] | IC50 [1, 4] [µM] | IC50 for the inhibition of NO production [3] [µg/mL] | Cytotoxicity against RAW 264.7 cells (RAW 264.7 cells) | IC50 α-glucosidase (α-glucosidase; compounds isolated from Clinopodium taxifolium) [µg/mL] | Reduction of cell growth (RAW 264.7 cells; at 100 µg/mL, RAW 264.7 cells, MTT) [%] | Cytotoxicity against RAW 264.7 cells (RAW 264.7 cells; [5]) | Effect on NO formation (NO formation) [%] | Manner of α-glucosidase inhibition (α-glucosidase) | Blocking of NO production (NO production) |
| --- | --- | --- | --- | --- | --- | --- | --- | --- | --- | --- | --- | --- | --- | --- | --- | --- | --- | --- | --- |
| C[C@H]1C(=O)CC[C@@H]2[C@]1(C)CC[C@H]1[C@@]2(C)CC[C@@]2(C)[C@@H]3CC(C)(C)CC[C@]3(C)CC[C@]12C [Compound 1, friedelin] | > 600 | <0.663 | > 600 | 1 | 1 | 13 | 20 | 23 | > 500 | 37.6 |  |  |  |  |  |  |  |  |  |
| C[C@@H]1CC[C@]2(C(=O)O)CC[C@]3(C)C(=CC[C@@H]4[C@@]5(C)CC[C@H](O)[C@@](C)(CO)[C@@H]5CC[C@]43C)[C@@H]2[C@]1(C)O [Compound 2, rotundic acid] |  | <0.663 | > 524 | 1 | 1 | 1 | 4 | 33 | 241 (≈ 494 µM) |  | > 524 | 241.3 ± 8.2 |  |  |  |  |  |  |  |
| C[C@@H]1CC[C@]2(C(=O)O[C@@H]3O[C@H](CO)[C@@H](O)[C@H](O)[C@H]3O)CC[C@]3(C)C(=CC[C@@H]4[C@@]5(C)CC[C@H](O)[C@@](C)(CO)[C@@H]5CC[C@]43C)[C@@H]2[C@]1(C)O [Compound 3, pedunculoside] | > 393 | 0.918 | 284 | 1 | 3 | 9.5 | 32 | 60.5 | 273 ± 8.2 (≈ 420 µM) |  |  |  | without cytotoxicity |  |  |  |  |  |  |
| C[C@H]1[C@H](C)CC[C@]2(CO)CC[C@]3(C)C(=CC[C@@H]4[C@@]5(C)CC[C@H](O)C(C)(C)[C@@H]5CC[C@]43C)[C@H]12 [Compound 4, uvaol] | > 578 |  |  |  |  |  |  |  | 246 (≈ 557 µM) |  |  | 246.5 ± 18.7 |  | 521.0 (≈ 1180 µM) |  |  |  |  |  |
| C[C@H]1[C@H](C)CC[C@]2(C(=O)O)CC[C@]3(C)C(=CC[C@@H]4[C@@]5(C)CC[C@H](O)C(C)(C)[C@@H]5CC[C@]43C)[C@H]12 [Compound 5, ursolic acid] |  |  | 2.41 | 48.5 | 91.5 | 95 | 98 | 99 | 43.9 ± 3.7 (≈ 96.1 µM) | 84 | 17.5 |  |  |  | 23.3 | moderate cytotoxicity | 80.6 | non-competitive |  |
| CC(C)=CCC[C@](C)(O[C@@H]1O[C@H](CO[C@@H]2O[C@H](CO)[C@@H](O)[C@H](O)[C@H]2O)[C@@H](O)[C@H](O)[C@H]1O)[C@H]1CC[C@]2(C)[C@@H]1[C@H](O)C[C@@H]1[C@@]3(C)CC[C@H](O[C@@H]4O[C@H](CO)[C@@H](O)[C@H](O)[C@H]4O)C(C)(C)[C@@H]3CC[C@]12C [Compound 6, gypenoside XVII] | > 270 | <0.663 | > 270 | 1 | 5 | 17 | 21 | 34 | 93.9 ± 5.4 (≈ 99.1 µM) |  |  |  |  |  |  | no cytotoxicity |  |  |  |
| COc1ccc2c(c1)OC[C@H]1c3cc4c(cc3O[C@@H]21)OCO4 [Compound 7, pterocarpin] |  | <0.663 | > 858 | 0 | 3 | 3 | 12 | 25 | 229 ± 18.6 (≈ 767 µM) |  | > 858 |  |  |  |  |  |  |  |  |
| COc1cc(/C=C/CO)cc(OC)c1O[C@@H]1O[C@H](CO)[C@@H](O)[C@H](O)[C@H]1O [Compound 8, syringin] | > 687 | <0.663 | > 687 | 0 | 1 | 8 | 9 | 12 | 303 ± 11 (≈ 814 µM) |  |  |  |  |  |  |  |  |  | not blocked |
| O=c1c(-c2ccc(O)cc2)coc2cc(O[C@@H]3O[C@H](CO)[C@@H](O)[C@H](O)[C@H]3O)ccc12 [Compound 9, daidzin] | > 615 | <0.663 | > 615 | 0 | 0 | 4 | 10 | 22 | > 500 | 39.5 |  |  |  |  |  |  |  |  |  |
| C[C@@H]1O[C@@H](OC[C@H]2O[C@@H](Oc3c(-c4ccc(O)c(O)c4)oc4cc(O)cc(O)c4c3=O)[C@H](O)[C@@H](O)[C@@H]2O)[C@H](O)[C@H](O)[C@H]1O [Compound 10, rutin] | 419 |  | 3.6 | 34.5 | 74 | 78 | 82.5 | 85 | 450 ± 5.2 (≈ 736 µM) |  |  |  |  |  |  |  |  |  |  |
| [H]/N=C(/NC)NCCC[C@H](N)C(=O)O [L-NMMA, N^G-Methyl-L-arginine acetate, reference compound] |  |  |  |  |  |  |  |  | 8.6 |  |  |  |  |  |  |  |  |  |  |
| C[C@H]1O[C@H](O[C@H]2[C@H](O)[C@@H](O)[C@@H](O[C@H]3[C@H](O)[C@@H](O)C(O)O[C@@H]3CO)O[C@@H]2CO)[C@H](O)[C@@H](O)[C@@H]1N[C@H]1C=C(CO)[C@@H](O)[C@H](O)[C@H]1O (stereo partly shown) [acarbose, reference compound] |  |  |  | 0 | 5 | 18 | 23 | 72 |  |  |  |  |  |  |  |  |  |  |  |

— article PMC8840612, “Inhibition of α-Glucosidase, Acetylcholinesterase, and Nitric Oxide Production by Phytochemicals Isolated from Millettia speciosa—In Vitro and Molecular Docking Studies” (Plants, 2022)
